Experimental data published in US20230257396A1, “MACROCYCLES AND THEIR USE” (BLOSSOMHILL THERAPEUTICS, INC., priority 2020, published 2023).

Legend:
Test in all cases: KINOMEscan kinase binding assay (Eurofins/DiscoveRx), % Ctrl
Conditions in all cases: 1 μM
[1] = biological target: T1, kinases (Homo sapiens, UniProt P07949, V804L)
T1 construct: purchased Eurofins/DiscoveRx; host or cells: E. coli BL21-derived host (T7 phage display) for most kinases; HEK-293 for the rest
Summary of the method: (§1)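 Read-out is qPCR of kinase eluted from ligand-coated streptavidin beads after 1 h room-temperature competition with test compound. Values are % Ctrl at the tested concentration, lower meaning tighter binding.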

[2] = biological target: T2, kinases (Homo sapiens, UniProt P10721, D816V)
T2 construct: purchased Eurofins/DiscoveRx; host or cells: E. coli BL21-derived host (T7 phage display) for most kinases; HEK-293 for the rest
Summary of the method: as §1

[3] = biological target: T3, kinases (Homo sapiens, UniProt P36888, K663Q)
T3 construct: purchased Eurofins/DiscoveRx; host or cells: E. coli BL21-derived host (T7 phage display) for most kinases; HEK-293 for the rest
T3 sequence (P36888 27-993 K663Q): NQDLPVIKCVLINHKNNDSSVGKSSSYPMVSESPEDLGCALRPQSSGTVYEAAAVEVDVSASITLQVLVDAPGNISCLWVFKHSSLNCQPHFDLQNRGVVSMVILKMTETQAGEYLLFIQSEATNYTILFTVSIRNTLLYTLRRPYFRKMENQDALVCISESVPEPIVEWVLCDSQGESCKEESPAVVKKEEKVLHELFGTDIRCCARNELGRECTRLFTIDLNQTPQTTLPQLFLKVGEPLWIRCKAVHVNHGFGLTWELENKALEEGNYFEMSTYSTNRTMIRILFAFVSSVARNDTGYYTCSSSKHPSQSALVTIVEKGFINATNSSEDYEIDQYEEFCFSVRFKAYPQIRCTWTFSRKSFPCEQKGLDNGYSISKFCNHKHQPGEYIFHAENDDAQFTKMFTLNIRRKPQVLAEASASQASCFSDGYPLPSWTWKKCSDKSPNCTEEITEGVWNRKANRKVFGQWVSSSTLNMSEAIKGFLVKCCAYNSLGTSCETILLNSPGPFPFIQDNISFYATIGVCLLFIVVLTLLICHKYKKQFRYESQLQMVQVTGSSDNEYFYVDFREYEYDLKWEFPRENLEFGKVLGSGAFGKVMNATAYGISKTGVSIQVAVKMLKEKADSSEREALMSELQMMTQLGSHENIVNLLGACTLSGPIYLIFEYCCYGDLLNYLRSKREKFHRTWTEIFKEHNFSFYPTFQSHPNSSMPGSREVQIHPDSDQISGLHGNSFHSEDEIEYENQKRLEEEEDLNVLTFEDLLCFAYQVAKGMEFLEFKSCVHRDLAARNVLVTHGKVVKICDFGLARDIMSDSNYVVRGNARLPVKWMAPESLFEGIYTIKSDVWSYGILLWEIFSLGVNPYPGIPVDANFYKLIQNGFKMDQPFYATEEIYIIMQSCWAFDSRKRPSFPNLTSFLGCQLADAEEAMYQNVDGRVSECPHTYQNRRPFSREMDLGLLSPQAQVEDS
Summary of the method: as §1

[4] = biological target: T4, kinases (Homo sapiens, UniProt P00519, F317I)
T4 construct: purchased Eurofins/DiscoveRx; host or cells: E. coli BL21-derived host (T7 phage display) for most kinases; HEK-293 for the rest
Summary of the method: as §1

[5] = biological target: T5, kinases (Homo sapiens, UniProt P00519, E255K)
T5 construct: purchased Eurofins/DiscoveRx; host or cells: E. coli BL21-derived host (T7 phage display) for most kinases; HEK-293 for the rest
Summary of the method: as §1

[6] = biological target: T6, kinases (Homo sapiens, UniProt P00533, G719S)
T6 construct: purchased Eurofins/DiscoveRx; host or cells: E. coli BL21-derived host (T7 phage display) for most kinases; HEK-293 for the rest
Summary of the method: as §1

[7] = biological target: T7, kinases (Homo sapiens, UniProt P00519, H396P)
T7 construct: purchased Eurofins/DiscoveRx; host or cells: E. coli BL21-derived host (T7 phage display) for most kinases; HEK-293 for the rest
Summary of the method: as §1

[8] = biological target: T8, kinases (Homo sapiens, UniProt P00533, L861Q)
T8 construct: purchased Eurofins/DiscoveRx; host or cells: E. coli BL21-derived host (T7 phage display) for most kinases; HEK-293 for the rest
Summary of the method: as §1

[9] = biological target: T9, kinases (Homo sapiens, UniProt P00533, G719C)
T9 construct: purchased Eurofins/DiscoveRx; host or cells: E. coli BL21-derived host (T7 phage display) for most kinases; HEK-293 for the rest
Summary of the method: as §1

[10] = target ABL1(F317I)-nonphosphorylated
[11] = target ABL1(F317I)-phosphorylated
[12] = target ABL1(E255K)-phosphorylated
[13] = target ABL1(H396P)-nonphosphorylated
[14] = target ABL1(H396P)-phosphorylated

T2 sequence (P10721 26-976 D816V): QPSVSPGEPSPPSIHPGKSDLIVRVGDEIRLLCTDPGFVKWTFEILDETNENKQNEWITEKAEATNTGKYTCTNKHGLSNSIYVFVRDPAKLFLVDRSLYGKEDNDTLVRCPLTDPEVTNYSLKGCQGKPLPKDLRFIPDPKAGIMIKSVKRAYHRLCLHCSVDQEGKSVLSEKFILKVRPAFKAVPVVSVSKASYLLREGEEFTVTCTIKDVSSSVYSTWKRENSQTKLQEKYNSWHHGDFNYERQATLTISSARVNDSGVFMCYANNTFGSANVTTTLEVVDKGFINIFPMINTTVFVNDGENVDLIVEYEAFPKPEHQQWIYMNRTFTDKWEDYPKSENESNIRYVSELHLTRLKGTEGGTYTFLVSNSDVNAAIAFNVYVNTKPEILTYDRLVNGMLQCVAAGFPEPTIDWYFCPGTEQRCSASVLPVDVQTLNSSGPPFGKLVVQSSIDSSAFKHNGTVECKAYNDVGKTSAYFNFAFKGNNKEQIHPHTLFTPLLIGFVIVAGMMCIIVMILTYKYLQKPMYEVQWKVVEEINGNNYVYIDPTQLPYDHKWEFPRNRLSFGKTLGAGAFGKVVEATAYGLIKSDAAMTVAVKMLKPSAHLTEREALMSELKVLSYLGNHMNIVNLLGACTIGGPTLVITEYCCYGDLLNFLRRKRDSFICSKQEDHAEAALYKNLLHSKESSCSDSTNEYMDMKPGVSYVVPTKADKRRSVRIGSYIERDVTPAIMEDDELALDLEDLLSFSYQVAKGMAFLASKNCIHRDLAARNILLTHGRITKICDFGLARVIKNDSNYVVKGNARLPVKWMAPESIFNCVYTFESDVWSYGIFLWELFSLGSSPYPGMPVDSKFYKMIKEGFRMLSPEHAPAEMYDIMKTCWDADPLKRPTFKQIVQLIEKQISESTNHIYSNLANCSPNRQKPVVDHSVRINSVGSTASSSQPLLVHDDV
T1 sequence (P07949 29-1114 V804L): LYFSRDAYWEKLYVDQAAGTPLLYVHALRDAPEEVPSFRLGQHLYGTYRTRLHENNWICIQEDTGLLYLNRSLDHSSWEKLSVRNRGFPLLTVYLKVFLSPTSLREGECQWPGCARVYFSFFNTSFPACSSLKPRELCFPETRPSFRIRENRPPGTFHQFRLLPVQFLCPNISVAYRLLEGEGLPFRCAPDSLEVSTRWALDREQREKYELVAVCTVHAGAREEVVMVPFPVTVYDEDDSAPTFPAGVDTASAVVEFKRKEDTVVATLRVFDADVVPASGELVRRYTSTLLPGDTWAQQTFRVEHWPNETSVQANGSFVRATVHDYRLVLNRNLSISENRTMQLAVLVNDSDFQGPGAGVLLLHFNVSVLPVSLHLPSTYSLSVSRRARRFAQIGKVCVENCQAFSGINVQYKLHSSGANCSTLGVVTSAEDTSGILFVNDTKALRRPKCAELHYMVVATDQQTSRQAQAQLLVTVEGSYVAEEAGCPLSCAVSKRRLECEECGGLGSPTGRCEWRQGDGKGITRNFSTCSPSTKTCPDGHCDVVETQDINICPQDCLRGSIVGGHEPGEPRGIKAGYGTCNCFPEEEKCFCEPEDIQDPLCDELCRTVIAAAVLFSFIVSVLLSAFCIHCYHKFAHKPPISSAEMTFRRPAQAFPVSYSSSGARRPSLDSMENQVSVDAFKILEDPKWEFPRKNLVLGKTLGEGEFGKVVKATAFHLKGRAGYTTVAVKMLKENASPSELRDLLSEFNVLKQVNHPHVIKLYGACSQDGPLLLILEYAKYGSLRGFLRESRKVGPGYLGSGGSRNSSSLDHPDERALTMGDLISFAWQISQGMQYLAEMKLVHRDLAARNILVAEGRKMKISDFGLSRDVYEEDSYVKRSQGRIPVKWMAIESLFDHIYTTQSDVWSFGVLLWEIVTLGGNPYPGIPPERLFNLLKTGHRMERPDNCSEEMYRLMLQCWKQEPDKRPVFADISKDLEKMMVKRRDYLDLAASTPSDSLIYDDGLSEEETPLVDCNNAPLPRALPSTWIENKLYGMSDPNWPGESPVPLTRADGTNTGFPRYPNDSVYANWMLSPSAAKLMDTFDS

| SMILES | % Ctrl, RET(V804L) ([1]; RET(V804L)) | % Ctrl, KIT(D816V) ([2]; KIT(D816V)) | % Ctrl, FLT3(K663Q) ([3]; FLT3(K663Q)) | % Ctrl, ABL1(F317I)-nonphosphorylated ([4]; ABL1(F317I)-nonphosphorylated) | % Ctrl, ABL1(F317I)-phosphorylated ([4]; ABL1(F317I)-phosphorylated) | % Ctrl, ABL1(E255K)-phosphorylated ([5]; ABL1(E255K)-phosphorylated) | % Ctrl, EGFR(G719S) ([6]; EGFR(G719S)) | % Ctrl, ABL1(H396P)-nonphosphorylated ([7]; ABL1(H396P)-nonphosphorylated) | % Ctrl, ABL1(H396P)-phosphorylated ([7]; ABL1(H396P)-phosphorylated) | % Ctrl, EGFR(L861Q) ([8]; EGFR(L861Q)) | % Ctrl, EGFR(G719C) ([9]; EGFR(G719C)) | % Ctrl, RET(V804L) ([1]; target RET(V804L)) | % Ctrl, KIT(D816V) ([2]; target KIT(D816V)) | % Ctrl, FLT3(K663Q) ([3]; target FLT3(K663Q)) | % Ctrl, ABL1(F317I)-nonphosphorylated [4, 10] | % Ctrl, ABL1(F317I)-phosphorylated [4, 11] | % Ctrl, ABL1(E255K)-phosphorylated [5, 12] | % Ctrl, EGFR(G719S) ([6]; target EGFR(G719S)) | % Ctrl, ABL1(H396P)-nonphosphorylated [7, 13] | % Ctrl, ABL1(H396P)-phosphorylated [7, 14] | other results |
| --- | --- | --- | --- | --- | --- | --- | --- | --- | --- | --- | --- | --- | --- | --- | --- | --- | --- | --- | --- | --- | --- |
| Cc1cc2c([nH]1)/C=C1\C(=O)Nc3cc(Cl)c(cc31)OCCO[C@@H](C(=O)NC1CCNCC1)CN(C)C2=O [Ex. 134, [7R,16a(17)Z]-19-chloro-2,5-dimethyl-4,16-dioxo-N-(piperidin-4-yl)-4,5,6,7,9,10,15,16-octahydro-1H-12,14-(ethaneidylidene)dipyrrolo[3,2-i:3′,4′-l][1,4,7]dioxazacyclopentadecine-7-carboxamide] | 55 % Ctrl | 56 % Ctrl | 73 % Ctrl | 84 % Ctrl | 70 % Ctrl | 50 % Ctrl | 92 % Ctrl | 25 % Ctrl | 35 % Ctrl | 95 % Ctrl | 89 % Ctrl |  |  |  |  |  |  |  |  |  |  |
| CNC(=O)[C@H]1CN(C)C(=O)c2cc(C)[nH]c2/C=C2\C(=O)Nc3cc(Cl)c(cc32)OCCO1 [Ex. 135, [7R,16a(17)Z]-19-chloro-N,2,5-trimethyl-4,16-dioxo-4,5,6,7,9,10,15,16-octahydro-1H-12,14-(ethanediylidene)dipyrrolo[3,2-i:3′,4′-l][1,4,7]dioxazacyclopentadecine-7-carboxamide] | 60 % Ctrl | 76 % Ctrl | 66 % Ctrl | 96 % Ctrl | 84 % Ctrl | 56 % Ctrl | 92 % Ctrl | 29 % Ctrl | 54 % Ctrl | 86 % Ctrl | 82 % Ctrl |  |  |  |  |  |  |  |  |  |  |
| Cc1cc2c([nH]1)/C=C1\C(=O)Nc3cc(Cl)c(cc31)OCCO[C@@H](C(=O)N[C@@H]1CCNC1)CN(C)C2=O [Ex. 136, [7R,16a(17)Z]-19-chloro-2,5-dimethyl-4,16-dioxo-N-[(3R)-pyrrolidin-3-yl]-4,5,6,7,9,10,15,16-octahydro-1H-12,14-(ethanediylidene)dipyrrolo[3,2-i:3′,4′-l][1,4,7]dioxazacyclopentadecine-7-carboxamide] | 50 % Ctrl | 36 % Ctrl | 64 % Ctrl | 78 % Ctrl | 66 % Ctrl | 36 % Ctrl | 92 % Ctrl | 11 % Ctrl | 22 % Ctrl | 95 % Ctrl | 90 % Ctrl |  |  |  |  |  |  |  |  |  |  |
| Cc1cc2c([nH]1)/C=C1\C(=O)Nc3cc(Cl)c(cc31)OCCO[C@@H](C(=O)N(C)C)CN(C)C2=O [Ex. 137, [7R,16a(17)Z]-19-chloro-N,N,2,5-tetramethyl-4,16-dioxo-4,5,6,7,9,10,15,16-octahydro-1H-12,14-(ethanediylidene)dipyrrolo[3,2-i:3′,4′-l][1,4,7]dioxazacyclopentadecine-7-carboxamide] | 37 % Ctrl | 67 % Ctrl | 69 % Ctrl | 95 % Ctrl | 83 % Ctrl | 64 % Ctrl | 98 % Ctrl | 38 % Ctrl | 65 % Ctrl | 100 % Ctrl | 100 % Ctrl |  |  |  |  |  |  |  |  |  |  |
| Cc1cc2c([nH]1)/C=C1\C(=O)Nc3cc(Cl)c(cc31)OCCO[C@@H](C(=O)N1CCN(C)CC1)CN(C)C2=O [Ex. 138, [7R,16a(17)Z]-19-chloro-2,5-dimethyl-7-(4-methylpipearazine-1-carbonyl)-6,7,9,10-tetrahydro-1H-12,14-(ethanediylidene)dipyrrolo[3,2-i:3′,4′-l][1,4,7]dioxazacyclopentadecine-4,16(5H,15H)-dione] |  |  |  |  |  |  |  |  |  |  |  | 83 % Ctrl | 100 % Ctrl | 95 % Ctrl | 86 % Ctrl | 100 % Ctrl | 61 % Ctrl | 95 % Ctrl | 69 % Ctrl | 82 % Ctrl | % Ctrl, EGFR(L861Q) ([8]; target EGFR(L861Q)): 100 % Ctrl; % Ctrl, EGFR(G719C) ([9]; target EGFR(G719C)): 100 % Ctrl |
| Cc1cc2c([nH]1)/C=C1\C(=O)Nc3ccc(cc31)-c1c(noc1C)CNCCN(C)C2=O [Ex. 139, [3a(4)Z]-6,9,16-trimethyl-10,11,12,13-tetrahydro-2H-1,17-(ethanediylidene)[1,2]oxazolo[4,3-m]dipyrrolo[3,2-f:3′,4′-i][1,4]diazacyclopentadecine-3,8(5H,9H)-dione] |  |  |  |  |  |  |  |  |  |  |  | 15 % Ctrl | 63 % Ctrl | 44 % Ctrl | 72 % Ctrl | 60 % Ctrl | 4.7 % Ctrl | 84 % Ctrl | 2 % Ctrl | 9.5 % Ctrl | % Ctrl, EGFR(L861Q) ([8]; target EGFR(L861Q)): 88 % Ctrl; % Ctrl, EGFR(G719C) ([9]; target EGFR(G719C)): 82 % Ctrl |
| CN1CCOCCOc2cc3c(cc2Cl)NC(=O)/C3=C\c2[nH]ccc2C1=O [Ex. 143, [16a(17)Z]-19-chloro-2,5-dimethyl-6,7,9,10-tetrahydro-1H-12,14-(ethanediylidene)dipyrrolo[3,2-i:3′,4′-l][1,4,7]oxathiazacyclopentadecine-4,16(5H,15H)-dione] |  |  |  |  |  |  |  |  |  |  |  | 3.5 % Ctrl | 34 % Ctrl | 11 % Ctrl | 46 % Ctrl | 26 % Ctrl | 6.4 % Ctrl | 94 % Ctrl | 1.6 % Ctrl | 11 % Ctrl | % Ctrl, EGFR(L861Q) ([8]; target EGFR(L861Q)): 100 % Ctrl; % Ctrl, EGFR(G719C) ([9]; target EGFR(G719C)): 100 % Ctrl |
| Cc1cc2c([nH]1)/C=C1\C(=O)Nc3ccc(cc31)-c1c(C)nn(C)c1COCCN(C)C2=O [Ex. 146, [3a(4)Z]-6,9,14,16-tetramethyl-10,11,13,14-tetrahydro-2H-1,17-(ethanediylidene)pyrazolo[4,3-m]dipyrrolo[3,2-f:3′,4′-i][1,4]oxazacyclopentadecine-3,8(5H,9H)-dione] |  |  |  |  |  |  |  |  |  |  |  | 3 % Ctrl | 80 % Ctrl | 14 % Ctrl | 100 % Ctrl | 100 % Ctrl | 57 % Ctrl | 84 % Ctrl | 50 % Ctrl | 80 % Ctrl | % Ctrl, EGFR(L861Q) ([8]; target EGFR(L861Q)): 89 % Ctrl; % Ctrl, EGFR(G719C) ([9]; target EGFR(G719C)): 89 % Ctrl |
